In patent US8357717B2, “Spiro group-containing amide compounds having bradykinin 1 receptor (B1R) activity” (Gruenenthal GmbH, priority 2009, dated 2013):

How the values were obtained:
[1] = biological target: T1, human B1R receptor (hB1R) (Homo sapiens, UniProt P46663); assay: FLIPR Ca2+ functional study on bradykinin receptor 1, hB1R cells (CHO K1); type: cell-based; conditions: CHO K1 cells with human B1R, agonist Lys-Des-Arg9-bradykinin at EC80; for inhibition at 10 µM: CHO-K1, 10 μM test substance, read-out: B1R antagonism, human [10 μM] % inhibition
T1 construct: expressed in transfected cells; host or cells: CHO K1 cells, stably transfected
T1 sequence (P46663 1-353): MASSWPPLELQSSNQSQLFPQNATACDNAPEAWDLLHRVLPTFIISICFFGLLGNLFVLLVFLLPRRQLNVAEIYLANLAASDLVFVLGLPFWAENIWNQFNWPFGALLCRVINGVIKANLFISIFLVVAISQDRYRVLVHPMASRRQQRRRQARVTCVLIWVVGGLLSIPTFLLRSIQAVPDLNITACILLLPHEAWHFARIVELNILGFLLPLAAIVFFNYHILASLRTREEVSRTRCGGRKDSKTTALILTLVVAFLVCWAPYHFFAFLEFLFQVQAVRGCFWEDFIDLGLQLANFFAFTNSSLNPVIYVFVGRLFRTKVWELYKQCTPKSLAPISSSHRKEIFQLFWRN
Method in brief: (§1)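 Stably transfected CHO K1 cells loaded with Fluo-4; FLIPR Ca2+ fluorescence (ex 488/em 540 nm, peak counts). Compounds (10 μM, or concentration series for IC50) preincubated 10–20 min, then EC80 agonist added (human: Lys-Des-Arg9-bradykinin; rat: Des-Arg9-bradykinin); % inhibition versus maximum achievable, n=2–3, N≥2.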

[2] = biological target: T2, B1R receptor of the rat (rB1R) (Rattus norvegicus, UniProt P97583); assay: FLIPR Ca2+ functional study on bradykinin receptor 1, rB1R cells (CHO K1); type: cell-based; conditions: 10 μM test substance, CHO K1 cells with rat B1R, agonist Des-Arg9-bradykinin at EC80; for inhibition at 10 µM: read-out: B1R antagonism, rat [10 μM] % inhibition
T2 construct: expressed in transfected cells; host or cells: CHO K1 cells, stably transfected
T2 sequence (P97583 1-337): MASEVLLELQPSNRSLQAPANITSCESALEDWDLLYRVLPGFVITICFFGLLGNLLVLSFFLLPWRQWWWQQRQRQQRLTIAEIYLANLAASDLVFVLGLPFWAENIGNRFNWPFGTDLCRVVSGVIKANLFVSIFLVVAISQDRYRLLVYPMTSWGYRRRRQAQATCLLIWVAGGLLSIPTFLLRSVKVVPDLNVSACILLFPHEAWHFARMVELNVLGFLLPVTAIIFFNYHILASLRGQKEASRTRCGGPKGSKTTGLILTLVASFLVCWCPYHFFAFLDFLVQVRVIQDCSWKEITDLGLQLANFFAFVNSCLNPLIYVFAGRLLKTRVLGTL
Method in brief: as §1

Row | SMILES | inhibition at 10 µM [1] | inhibition at 10 µM [2] | B1R antagonism, human [10 μM] % inhibition ([1]; 10 μM test substance, 10 µM) | B1R antagonism, rat [10 μM] % inhibition [2]
1 | O=C(Cc1ccc2c(c1)N(S(=O)(=O)c1cccc3ccccc13)CCC2)N1CCC2(CCC(N3CCC3)CC2)CC1 [Compound G-54, 1-(9-(Azetidin-1-yl)-3-azaspiro[5.5]undecan-3-yl)-2-(1-(naphthalin-1-ylsulfonyl)-1,2,3,4-tetrahydroquinolin-7-yl)ethanone] | 57% | 55% |  | 
2 | O=C(Nc1ccc(Cl)c(Cl)c1)N1CCc2ccc(C(=O)N3CCC4(CC3)CCN(c3ccncc3)CC4)cc2C1 [Compound G-55, N-(3,4-dichlorophenyl)-7-(9-(pyridin-4-yl)-3,9-diazaspiro[5.5]undecane-3-carbonyl)-3,4-dihydroisoquinoline-2(1H)-carboxamide] | 92% | 94% |  | 
3 | O=C(c1ccc2c(c1)CN(S(=O)(=O)c1ccc(F)c3ccccc13)CC2)N1CCC2(CC1)CCN(c1ccncc1)CC2 [Compound G-56, (2-(4-Fluoronaphthalin-1-ylsulfonyl)-1,2,3,4-tetrahydroisoquinolin-7-yl)(9-(pyridin-4-yl)-3,9-diazaspiro[5.5]undecan-3-yl)methanone] | 87% | 90% |  | 
4 | O=C(Cc1ccc2c(c1)N(S(=O)(=O)c1ccccc1C(F)(F)F)CCC2)N1CCC2(CCN(c3ccncc3)CC2)C1 [Compound G-57, 1-(8-(Pyridin-4-yl)-2,8-diazaspiro[4.5]decan-2-yl)-2-(1-(2-(trifluoromethyl)phenylsulfonyl)-1,2,3,4-tetrahydroquinolin-7-yl)ethanone] | 100% | 101% |  | 
5 | Cc1ccc(C(=O)N2CCc3ccc(C(=O)N4CCC5(CC4)CCN(c4ccncc4)CC5)cc3C2)s1 [Compound G-58, (5-Methylthiophen-2-yl)(7-(9-(pyridin-4-yl)-3,9-diazaspiro[5.5]undecane-3-carbonyl)-3,4-dihydroisoquinolin-2(1H)-yl)methanone] | 100% | 91% |  | 
6 | O=C(c1ccc2c(c1)CN(C(=O)c1cc3c(s1)CCC3)CC2)N1CCC2(CC1)CCN(c1ccncc1)CC2 [Compound G-60, (5,6-Dihydro-4H-cyclopenta[b]thiophen-2-yl)(7-(9-(pyridin-4-yl)-3,9-diazaspiro[5.5]undecane-3-carbonyl)-3,4-dihydroisoquinolin-2(1H)-yl)methanone] | 98% | 91% |  | 
7 | COc1ccc2c(Cl)c(C(=O)N3CCc4ccc(C(=O)N5CCC6(CC5)CCN(c5ccncc5)CC6)cc4C3)sc2c1 [Compound G-61, (3-Chloro-6-methoxybenzo[b]thiophen-2-yl)(7-(9-(pyridin-4-yl)-3,9-diazaspiro[5.5]undecane-3-carbonyl)-3,4-dihydroisoquinolin-2(1H)-yl)methanone] | 77% | 91% |  | 
8 | O=C(Cc1ccc2c(c1)N(C(=O)c1ccccc1Cl)CCC2)N1CCC2(CC1)CCN(c1ccncc1)CC2 [Compound G-64, 2-[1-(2-Chloro-benzoyl)-1,2,3,4-tetrahydro-quinolin-7-yl]-1-(9-pyridin-4-yl-3,9-diazaspiro[5.5]undecan-3-yl)-ethanone] | 59% | 96% |  | 
9 | Cc1cccc(Cl)c1S(=O)(=O)N1Cc2ccc(C(=O)N3CCC4(CC3)CCN(c3ccncc3)CC4)cc2C1 [Compound G-68, [2-[(2-Chloro-6-methyl-phenyl)sulfonyl]-2,3-dihydro-1H-isoindol-5-yl]-(9-pyridin-4-yl-3,9-diazaspiro[5.5]undecan-3-yl)-methanone] | 90% | 81% |  | 
10 | O=C(c1ccc2c(c1)CN(C(=O)c1ccc(Cl)s1)C2)N1CCC2(CC1)CCN(c1ccncc1)CC2 [Compound G-69, [2-(5-Chloro-thiophene-2-carbonyl)-2,3-dihydro-1H-isoindol-5-yl]-(9-pyridin-4-yl-3,9-diazaspiro[5.5]undecan-3-yl)-methanone] | 99% | 70% |  | 
11 | COc1cc(C)c(S(=O)(=O)N2CCCc3ccc(CC(=O)N4CCC5(CC4)CCN(c4ccncc4)CC5)nc32)c(C)c1 [Compound G-70, 2-[8-[(4-Methoxy-2,6-dimethyl-phenyl)sulfonyl]-5,6,7,8-tetrahydro-[1,8]naphthyridin-2-yl]-1-(9-pyridin-4-yl-3,9-diazaspiro[5.5]undecan-3-yl)-ethanone] | 88% | 101% |  | 
12 | COc1cc(C)c(S(=O)(=O)N2CCn3cnc(C(=O)N4CCC5(CC4)CCN(c4ccncc4)CC5)c3C2)c(C)c1 [Compound G-72, [7-[(4-Methoxy-2,6-dimethyl-phenyl)sulfonyl]-5,6,7,8-tetrahydro-imidazo[1,5-a]pyrazin-1-yl]-(9-pyridin-4-yl-3,9-diazaspiro[5.5]undecan-3-yl)-methanone] | 100% | 104% |  | 

More lines, now with the values ahead:

Row | inhibition at 10 µM [1] | inhibition at 10 µM [2] | B1R antagonism, human [10 μM] % inhibition ([1]; 10 μM test substance, 10 µM) | B1R antagonism, rat [10 μM] % inhibition [2] | SMILES
13 | 86% | 95% |  |  | O=C(c1ccc2c(c1)CN(C(=O)c1cc3ccccc3s1)CC2)N1CCC2(CC1)CCN(c1ccncc1)CC2 [Compound G-59, Benzo[b]thiophen-2-yl(7-(9-(pyridin-4-yl)-3,9-diazaspiro[5.5]undecane-3-carbonyl)-3,4-dihydroisoquinolin-2(1H)-yl)methanone]
14 | 44% | 78% |  |  | O=C(c1ccc2c(c1)CN(S(=O)(=O)c1cccc3c(Cl)cccc13)CC2)N1CCC2(CC1)CCN(c1ccncc1)CC2 [Compound G-62, (2-(5-Chloronaphthalin-1-ylsulfonyl)-1,2,3,4-tetrahydroisoquinolin-7-yl)(9-(pyridin-4-yl)-3,9-diazaspiro[5.5]undecan-3-yl)methanone]
15 | 83% | 80% |  |  | CC(C)(C)c1ccc(C(=O)N2CCc3ccc(C(=O)N4CCC5(CC4)CCN(c4ccncc4)CC5)cc3C2)s1 [Compound G-63, (5-tert-Butylthiophen-2-yl)(7-(9-(pyridin-4-yl)-3,9-diazaspiro[5.5]undecane-3-carbonyl)-3,4-dihydroisoquinolin-2(1H)-yl)methanone]
16 | 98% | 100% |  |  | Cc1ccc(Cl)c(S(=O)(=O)N2CCCc3ccc(CC(=O)N4CCC5(CC4)CCN(c4ccncc4)CC5)cc32)c1Cl [Compound G-66, 2-[1-[(2,6-Dichloro-3-methyl-phenyl)sulfonyl]-1,2,3,4-tetrahydro-quinolin-7-yl]-1-(9-pyridin-4-yl-3,9-diazaspiro[5.5]undecan-3-yl)-ethanone]
17 | 100% | 101% |  |  | COc1cc(C)c(S(=O)(=O)N2Cc3ccc(C(=O)N4CCC5(CC4)CCN(c4ccncc4)CC5)cc3C2)c(C)c1 [Compound G-67, [2-[(4-Methoxy-2,6-dimethyl-phenyl)sulfonyl]-2,3-dihydro-1H-isoindol-5-yl]-(9-pyridin-4-yl-3,9-diazaspiro[5.5]undecan-3-yl)-methanone]
18 | 91% | 80% |  |  | O=C(c1cn2c(n1)CN(C(=O)c1ccc(Cl)s1)CC2)N1CCC2(CC1)CCN(c1ccncc1)CC2 [Compound G-71, [7-(5-Chloro-thiophene-2-carbonyl)-5,6,7,8-tetrahydro-imidazo[1,2-a]pyrazin-2-yl]-(9-pyridin-4-yl-3,9-diazaspiro[5.5]undecan-3-yl)-methanone]
19 | 85% | 13% |  |  | COc1cc(C)c(C(=O)N2Cc3ccc(C(=O)N4CCC5(CC4)CCN(c4ccncc4)CC5)cc3C2)c(C)c1 [Compound G-73, [2-(4-Methoxy-2,6-dimethyl-benzoyl)-2,3-dihydro-1H-isoindol-5-yl]-(9-pyridin-4-yl-3,9-diazaspiro[5.5]undecan-3-yl)-methanone]
20 | 87% | 99% |  |  | Cc1cc(S(=O)(=O)N2CCc3ccc(C(=O)N4CCC5(CC4)CCN(c4ccncc4)CC5)cc32)c(C)cc1Cl [G_CC-013, (1-(4-Chloro-2,5-dimethylphenylsulfonyl)indolin-6-yl)(9-(pyridin-4-yl)-3,9-diazaspiro[5.5]undecan-3-yl)methanone]
21 |  |  | 96% | 98% | COc1cc(C)c(S(=O)(=O)N2CCCc3ccc(CC(=O)N4CCC5(CC4)CCN(c4ccncc4)CC5)cc32)c(C)c1 [G_CC-055, 2-[1-[(4-Methoxy-2,6-dimethyl-phenyl)sulfonyl]-1,2,3,4-tetrahydro-quinolin-7-yl]-1-(3-pyridin-4-yl-3,9-diazaspiro[5.5]undecan-9-yl)-ethanone]
